# According to PubChem BioAssay AID248 (DTP/NCI, 2004):
# “And” between values parts separate entries of the source, which are not always exact repeats. Equal values may be shown once. Toxic doses and inconclusive results are not listed.
# System: L1210 leukemia ip in BDF1 mice, survival T/C
# Assay: NCI In Vivo Anticancer Drug Screen. Data for tumor model L1210 Leukemia (intraperitoneal) in B6D2F1 (BDF1) mice
# Details: higher = longer survival
# Procedure, shortened: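 Value reflects the ratio of survival in compound-treated mice to survival in vehicle-treated controls, with both groups carrying the same transplanted tumor.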
# [1] = endpoint: mean survival time, dose: 25.0 mg/kg/injection, schedule: Q01DX001 (ip), vehicle: saline
# [2] = endpoint: mean survival time, dose: 50.0 mg/kg/injection, schedule: Q01DX001 (ip), vehicle: saline
# [3] = endpoint: mean survival time, dose: 100.0 mg/kg/injection, schedule: Q01DX001 (ip), vehicle: saline
# [4] = endpoint: mean survival time, dose: 200.0 mg/kg/injection, schedule: Q01DX001 (ip), vehicle: saline
# [5] = endpoint: mean survival time, dose: 400.0 mg/kg/injection, schedule: Q01DX001 (ip), vehicle: saline
compound,measurement,setting,value
NCCc1ccc(O)c(O)c1,T/C,"endpoint: mean survival time, dose: 6.25 mg/kg/injection, schedule: Q03HX024 (ip), vehicle: saline",101 % of control
same,T/C,"endpoint: mean survival time, dose: 12.5 mg/kg/injection, schedule: Q03HX004 (ip), vehicle: saline",113 % of control
same,T/C,"endpoint: mean survival time, dose: 12.5 mg/kg/injection, schedule: Q03HX024 (ip), vehicle: saline",87 % of control
same,T/C,[1],104 % of control
same,T/C,"endpoint: mean survival time, dose: 25.0 mg/kg/injection, schedule: Q01DX009 (ip), vehicle: Klucel (hydroxypropylcellulose) (HPC)",105 % of control
same,T/C,"endpoint: mean survival time, dose: 25.0 mg/kg/injection, schedule: Q03HX004 (ip), vehicle: saline",113 % of control
same,T/C,"endpoint: mean survival time, dose: 25.0 mg/kg/injection, schedule: Q03HX024 (ip), vehicle: saline",106 % of control
same,T/C,"endpoint: mean survival time, dose: 25.0 mg/kg/injection, schedule: Q04DX003 (ip), vehicle: saline",94 % of control
same,T/C,[2],100 % of control
same,T/C,"endpoint: mean survival time, dose: 50.0 mg/kg/injection, schedule: Q01DX009 (ip), vehicle: Klucel (hydroxypropylcellulose) (HPC)",114 % of control
same,T/C,"endpoint: mean survival time, dose: 50.0 mg/kg/injection, schedule: Q01DX009 (ip), vehicle: saline",118 % of control and 119 % of control
same,T/C,"endpoint: mean survival time, dose: 50.0 mg/kg/injection, schedule: Q03HX004 (ip), vehicle: saline",124 % of control
same,T/C,"endpoint: mean survival time, dose: 50.0 mg/kg/injection, schedule: Q03HX024 (ip), vehicle: saline",115 % of control
same,T/C,"endpoint: mean survival time, dose: 50.0 mg/kg/injection, schedule: Q04DX003 (ip), vehicle: saline",94 % of control
same,T/C,[3],108 % of control
same,T/C,"endpoint: mean survival time, dose: 100.0 mg/kg/injection, schedule: Q03HX024 (ip), vehicle: saline",115 % of control
same,T/C,"endpoint: mean survival time, dose: 100.0 mg/kg/injection, schedule: Q04DX003 (ip), vehicle: saline",97 % of control
same,T/C,"endpoint: mean survival time, dose: 150.0 mg/kg/injection, schedule: Q01DX009 (ip), vehicle: saline",104 % of control
same,T/C,[4],99 % of control
same,T/C,"endpoint: mean survival time, dose: 200.0 mg/kg/injection, schedule: Q04DX003 (ip), vehicle: saline",101 % of control
same,T/C,[5],115 % of control
same,T/C,"endpoint: mean survival time, dose: 400.0 mg/kg/injection, schedule: Q01DX009 (ip), vehicle: Klucel (hydroxypropylcellulose) (HPC)",152 % of control
same,T/C,"endpoint: mean survival time, dose: 400.0 mg/kg/injection, schedule: Q01DX009 (ip), vehicle: saline",123 % of control
same,T/C,"endpoint: mean survival time, dose: 400.0 mg/kg/injection, schedule: Q04DX003 (ip), vehicle: saline",94 % of control
same,T/C,"endpoint: mean survival time, dose: 600.0 mg/kg/injection, schedule: Q01DX009 (ip), vehicle: saline",103 % of control
same,T/C,"endpoint: mean survival time, dose: 800.0 mg/kg/injection, schedule: Q01DX009 (ip), vehicle: saline",122 % of control
same,T/C,"endpoint: mean survival time, dose: 800.0 mg/kg/injection, schedule: Q04HX003 (ip), vehicle: saline",108 % of control
same,T/C,"endpoint: mean survival time, dose: 1600.0 mg/kg/injection, schedule: Q04HX003 (ip), vehicle: saline",104 % of control
same,T/C,"endpoint: median survival time, dose: 20.0 mg/kg/injection, schedule: Q04HX036 (ip), vehicle: saline",92 % of control
same,T/C,"endpoint: median survival time, dose: 40.0 mg/kg/injection, schedule: Q01DX009 (sc), vehicle: saline",98 % of control
same,T/C,"endpoint: median survival time, dose: 40.0 mg/kg/injection, schedule: Q04HX020 (ip), vehicle: saline",114 % of control
same,T/C,"endpoint: median survival time, dose: 40.0 mg/kg/injection, schedule: Q04HX036 (ip), vehicle: saline",106 % of control
same,T/C,"endpoint: median survival time, dose: 40.0 mg/kg/injection, schedule: Q11DX017 (ip), vehicle: saline",104 % of control
same,T/C,"endpoint: median survival time, dose: 40.0 mg/kg/injection, schedule: Q12HX018 (ip), vehicle: saline",114 % of control
same,T/C,"endpoint: median survival time, dose: 80.0 mg/kg/injection, schedule: Q01DX009 (ip), vehicle: saline",118 % of control
same,T/C,"endpoint: median survival time, dose: 80.0 mg/kg/injection, schedule: Q01DX009 (oral), vehicle: saline",97 % of control
same,T/C,"endpoint: median survival time, dose: 80.0 mg/kg/injection, schedule: Q01DX009 (sc), vehicle: saline",104 % of control
same,T/C,"endpoint: median survival time, dose: 80.0 mg/kg/injection, schedule: Q02DX005 (ip), vehicle: saline",111 % of control
same,T/C,"endpoint: median survival time, dose: 80.0 mg/kg/injection, schedule: Q04HX020 (ip), vehicle: saline",123 % of control
same,T/C,"endpoint: median survival time, dose: 80.0 mg/kg/injection, schedule: Q04HX036 (ip), vehicle: saline",122 % of control
same,T/C,"endpoint: median survival time, dose: 80.0 mg/kg/injection, schedule: Q11DX017 (ip), vehicle: saline",120 % of control
same,T/C,"endpoint: median survival time, dose: 80.0 mg/kg/injection, schedule: Q12HX010 (ip), vehicle: saline",121 % of control
same,T/C,"endpoint: median survival time, dose: 160.0 mg/kg/injection, schedule: Q01DX009 (oral), vehicle: saline",104 % of control
same,T/C,"endpoint: median survival time, dose: 160.0 mg/kg/injection, schedule: Q01DX009 (sc), vehicle: saline",96 % of control
same,T/C,"endpoint: median survival time, dose: 160.0 mg/kg/injection, schedule: Q04HX036 (ip), vehicle: saline",108 % of control
same,T/C,"endpoint: median survival time, dose: 320.0 mg/kg/injection, schedule: Q01DX009 (oral), vehicle: saline",105 % of control
same,T/C,"endpoint: median survival time, dose: 320.0 mg/kg/injection, schedule: Q01DX009 (sc), vehicle: saline",103 % of control
same,T/C,"endpoint: median survival time, dose: 320.0 mg/kg/injection, schedule: Q02DX005 (ip), vehicle: saline",122 % of control
same,T/C,"endpoint: median survival time, dose: 640.0 mg/kg/injection, schedule: Q01DX009 (oral), vehicle: saline",106 % of control
same,T/C,"endpoint: median survival time, dose: 640.0 mg/kg/injection, schedule: Q01DX009 (sc), vehicle: saline",103 % of control
same,T/C,"endpoint: median survival time, dose: 640.0 mg/kg/injection, schedule: Q02DX005 (ip), vehicle: saline",124 % of control
Clc1nc2nnnn2c2ccccc12,T/C,"endpoint: mean survival time, dose: 20.0 mg/kg/injection, schedule: Q04DX003 (ip), vehicle: saline",101 % of control
same,T/C,"endpoint: mean survival time, dose: 40.0 mg/kg/injection, schedule: Q04DX003 (ip), vehicle: saline",101 % of control
same,T/C,"endpoint: mean survival time, dose: 80.0 mg/kg/injection, schedule: Q04DX003 (ip), vehicle: saline",104 % of control
Cc1cc(=O)[nH]c(NCCCC(N)C(=O)O)n1 (centres undefined),T/C,"endpoint: mean survival time, dose: 100.0 mg/kg/injection, schedule: Q04DX002 (ip), vehicle: saline",104 % of control
same,T/C,"endpoint: mean survival time, dose: 200.0 mg/kg/injection, schedule: Q04DX002 (ip), vehicle: saline",101 % of control
same,T/C,"endpoint: mean survival time, dose: 400.0 mg/kg/injection, schedule: Q04DX002 (ip), vehicle: saline",96 % of control
CCNS(=O)(=O)O,T/C,[1],98 % of control
same,T/C,[2],104 % of control
same,T/C,[3],107 % of control and 120 % of control
same,T/C,[4],102 % of control
same,T/C,[5],105 % of control
S=C(NNc1ccccc1)NC1CCCCC1,T/C,"endpoint: mean survival time, dose: 150.0 mg/kg/injection, schedule: Q01DX009 (ip), vehicle: saline with Tween-80",95 % of control
same,T/C,"endpoint: mean survival time, dose: 225.0 mg/kg/injection, schedule: Q01DX009 (ip), vehicle: saline with Tween-80",97 % of control
same,T/C,"endpoint: mean survival time, dose: 335.0 mg/kg/injection, schedule: Q01DX009 (ip), vehicle: saline with Tween-80",92 % of control
Cc1ccc(I)c([N+](=O)[O-])c1,T/C,"endpoint: mean survival time, dose: 50.0 mg/kg/injection, schedule: Q01DX001 (ip), vehicle: carboxymethylcellulose (CMC)",96 % of control
same,T/C,"endpoint: mean survival time, dose: 100.0 mg/kg/injection, schedule: Q01DX001 (ip), vehicle: carboxymethylcellulose (CMC)",89 % of control
same,T/C,"endpoint: mean survival time, dose: 200.0 mg/kg/injection, schedule: Q01DX001 (ip), vehicle: carboxymethylcellulose (CMC)",91 % of control
same,T/C,"endpoint: mean survival time, dose: 400.0 mg/kg/injection, schedule: Q01DX001 (ip), vehicle: carboxymethylcellulose (CMC)",100 % of control
Cc1c(-c2ccccc2)sc(N)c1C#N,T/C,"endpoint: mean survival time, dose: 100.0 mg/kg/injection, schedule: Q01DX001 (ip), vehicle: saline with Tween-80",94 % of control
same,T/C,"endpoint: mean survival time, dose: 100.0 mg/kg/injection, schedule: Q01DX009 (ip), vehicle: saline with Tween-80",93 % of control and 100 % of control
same,T/C,"endpoint: mean survival time, dose: 100.0 mg/kg/injection, schedule: Q04DX002 (ip), vehicle: saline with Tween-80",94 % of control
same,T/C,"endpoint: mean survival time, dose: 100.0 mg/kg/injection, schedule: Q04DX003 (ip), vehicle: saline with Tween-80",95 % of control
same,T/C,"endpoint: mean survival time, dose: 200.0 mg/kg/injection, schedule: Q01DX001 (ip), vehicle: saline with Tween-80",93 % of control
same,T/C,"endpoint: mean survival time, dose: 200.0 mg/kg/injection, schedule: Q01DX009 (ip), vehicle: saline with Tween-80",92 % of control
same,T/C,"endpoint: mean survival time, dose: 200.0 mg/kg/injection, schedule: Q04DX002 (ip), vehicle: saline with Tween-80",94 % of control and 98 % of control
same,T/C,"endpoint: mean survival time, dose: 200.0 mg/kg/injection, schedule: Q04DX003 (ip), vehicle: saline with Tween-80",100 % of control
same,T/C,"endpoint: mean survival time, dose: 400.0 mg/kg/injection, schedule: Q01DX001 (ip), vehicle: saline with Tween-80",93 % of control
same,T/C,"endpoint: mean survival time, dose: 400.0 mg/kg/injection, schedule: Q01DX009 (ip), vehicle: saline with Tween-80",100 % of control and 87 % of control
same,T/C,"endpoint: mean survival time, dose: 400.0 mg/kg/injection, schedule: Q04DX002 (ip), vehicle: saline with Tween-80",96 % of control
same,T/C,"endpoint: mean survival time, dose: 400.0 mg/kg/injection, schedule: Q04DX003 (ip), vehicle: saline with Tween-80",100 % of control
O=C1OC2C3c4ccccc4C(c4c3cc(F)c3ccccc43)C2O1 (centres undefined),T/C,"endpoint: mean survival time, dose: 100.0 mg/kg/injection, schedule: Q04DX003 (ip), vehicle: Klucel (hydroxypropylcellulose) (HPC)",100 % of control
same,T/C,"endpoint: mean survival time, dose: 200.0 mg/kg/injection, schedule: Q04DX003 (ip), vehicle: Klucel (hydroxypropylcellulose) (HPC)",97 % of control
same,T/C,"endpoint: mean survival time, dose: 400.0 mg/kg/injection, schedule: Q04DX003 (ip), vehicle: Klucel (hydroxypropylcellulose) (HPC)",95 % of control
